Reference: ChEMBL document CHEMBL1158727, “Cyclobutane dimers from the Colombian medicinal plant Achyrocline bogotensis” (2005)

What was measured:
Type in all cases: functional
PBMC [1] = test: Inhibition of LPS-induced IL10 production in human PBMC at 0.3 mg/mL after 48 hrs by ELISA
PBMC [2] = test: Inhibition of LPS-induced IL12 production in human PBMC at 0.3 mg/mL after 48 hrs by ELISA
PBMC [3] = test: Inhibition of LPS-induced TNFalpha production in human PBMC at 0.3 mg/mL after 48 hrs by ELISA

C[C@]12C=CC(=O)C=C1CC[C@@H]1[C@@H]2[C@@H](O)C[C@@]2(C)[C@H]1CC[C@]2(O)C(=O)CO [PREDNISOLONE]
inhibition at 300 µg/mL (PBMC [1]): 0.14%
inhibition at 300 µg/mL (PBMC [2]): 0.24%
inhibition at 300 µg/mL (PBMC [3]): 0.44%
